From paper PMC5963591, “Bitopic Binding Mode of an M1 Muscarinic Acetylcholine Receptor Agonist Associated with Adverse Clinical Trial Outcomes” (Molecular Pharmacology, 2018)

Columns and labels:
rodents = tested on: rodents; design: method as in Budzik et al., 2010; details: ref Budzik et al., 2010; cited from earlier work
human M1 mAChR [1] = target: T1, human M1 mAChR (Homo sapiens, UniProt P11229); test: [3H]-NMS binding interaction studies with BQCA; design: expressed in transfected cells; host or cells: CHO Flp-In; details: increasing concentrations of BQCA
T1 sequence (P11229 1-460): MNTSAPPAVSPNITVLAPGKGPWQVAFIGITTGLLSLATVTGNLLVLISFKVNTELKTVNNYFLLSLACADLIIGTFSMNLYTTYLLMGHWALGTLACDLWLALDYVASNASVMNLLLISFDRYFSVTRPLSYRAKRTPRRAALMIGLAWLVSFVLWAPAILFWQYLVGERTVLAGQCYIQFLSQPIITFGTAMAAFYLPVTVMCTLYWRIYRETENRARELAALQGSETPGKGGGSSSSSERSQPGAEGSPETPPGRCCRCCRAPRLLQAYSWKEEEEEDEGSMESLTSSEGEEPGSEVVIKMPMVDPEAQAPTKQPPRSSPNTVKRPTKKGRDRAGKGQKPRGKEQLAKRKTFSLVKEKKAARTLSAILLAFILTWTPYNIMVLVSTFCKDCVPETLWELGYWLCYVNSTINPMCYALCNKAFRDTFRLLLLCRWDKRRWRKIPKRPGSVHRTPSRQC
Description: Prior to the experiment, cells were washed with 100 μl phosphate-buffered saline. […] Binding was terminated by rapid aspiration followed by two washes with 200 μl ice-cold 0.9% NaCl. Bound radioactivity was determined by liquid scintillation (Ultima Gold; PerkinElmer, Boston, MA) counting. Nonspecific binding was determined in the presence of 10 μM atropine.

M1 DREADD = target: T2, M1 DREADD (Homo sapiens, UniProt P11229, A196G/Y106C); test: Receptor phosphorylation at serine 228, M1 DREADD, CHO Flp-In cells; type: cell-based; details: compared with wild type
T2 construct: HA; expressed in transfected cells; host or cells: CHO Flp-In

humanized M1 DREADD = target: T3, humanized M1 DREADD (Homo sapiens, UniProt P11229, A196G/Y106C); test: IP1 accumulation and ERK1/2 phosphorylation at M1 DREADD, CHO Flp-In cells; type: cell-based
T3 construct: expressed in transfected cells; host or cells: CHO Flp-In

human mAChR M2 = target: T4, human mAChR M2 (Homo sapiens, UniProt P08172); test: [3H]-NMS competition binding, CHO membranes, M2
T4 construct: purchased PerkinElmer; host or cells: CHO
Description: (§1) For competition binding experiments at M1, M2, M3, M4, and M5 mAChRs, CHO membranes were purchased from PerkinElmer. All experiments were performed in assay buffer of the following composition: 20 mM HEPES, 100 mM NaCl, and 10 mM MgCl2, pH 7.5, and used 10 µg protein/well in a total assay volume of 1 ml using deep well blocks. […] All assay incubations were initiated by the addition of membrane suspensions and deep well blocks were shaken for 5 minutes to ensure complete mixing. Incubation was then carried out for 2 hours at 21°C. Binding reactions were terminated by rapid filtration through GF/A filters (PerkinElmer) presoaked with 0.5% (w/v) polyethylenimine for 1 hour. Filters were then washed three times with 1 ml ice-cold assay buffer.
(§2) Inhibition binding data were curve-fit using GraphPad Prism 6 to derive the potency (IC50) of the test compound. The equilibrium dissociation constant (KI) of the test compound was then calculated with the Cheng–Prusoff equation: KI = IC50/[1 + ([L]/KD)] using the KD value derived separately from saturation binding studies.

human M1 mAChR [2] = target: T1, human M1 mAChR; test: Kinetic [3H]-NMS binding (dissociation) in membranes; design: expressed in transfected cells; host or cells: CHO Flp-In; details: compound 10 μM plus atropine 10 μM
Description: Reactions were terminated by rapid filtration onto GF/B filter paper (Whatman, Maidstone, UK) and three washes with 3 ml ice-cold 0.9% NaCl using a Brandel harvester (M-24TI; Brandel, Fort Lauderdale, FL). Membrane bound radioactivity was determined by liquid scintillation (Ultima Gold; PerkinElmer) counting.

M5 mAChR = target: T5, M5 mAChR (Homo sapiens, UniProt P08912); test: ERK1/2 phosphorylation, CHO cells, M5; type: cell-based
T5 construct: expressed in transfected cells; host or cells: CHO

human mAChR M3 = target: T6, human mAChR M3 (Homo sapiens, UniProt P20309); test: [3H]-NMS competition binding, CHO membranes, M3; details: compared with other subtypes
T6 construct: purchased PerkinElmer; host or cells: CHO
Description: as §1, §2

M4 mAChR = target: T7, M4 mAChR (Homo sapiens, UniProt P08173); test: ERK1/2 phosphorylation, CHO cells, M4; type: cell-based
T7 construct: expressed in transfected cells; host or cells: CHO

human M1 mAChR [3] = target: T1, human M1 mAChR; test: IP-One (IP1) accumulation assay, CHO Flp-In human M1 cells; type: cell-based; design: expressed in transfected cells; host or cells: CHO Flp-In
Description: Stimulation of IP accumulation was determined using the Cisbio IP-One Gq assay kit per the manufacturer’s instructions. […] CHO Flp-In cells stably expressing the human M1 mAChR were grown to confluence in T75 cell culture flasks at 37°C. Cells were washed with warm phosphate-buffered saline and detached using phosphate-buffered saline with 0.1 M EDTA. Detached cells were centrifuged at 1000g and the cells were resuspended in stimulation buffer.
All IP-One stimulations were terminated by the addition of 3 μl/well IP1-d2 solution, followed by 3 μl/well anti–IP1-cryptate solution and incubation for 1 hour at room temperature with shaking.
Functional concentration-response curves were fitted according to a four-parameter logistic equation (to determine minimum and maximum asymptotes, LogEC50, and slope; GraphPad Prism 6). […] In the absence of antagonist ([B] = 0), this equation becomes the standard four-parameter logistic equation for fitting agonist concentration-response data.

human mAChR M5 = target: T8, human mAChR M5 (Homo sapiens, UniProt P08912); test: [3H]-NMS competition binding, CHO membranes, M5
T8 construct: purchased PerkinElmer; host or cells: CHO
Description: as §1, §2

T6 sequence (P20309 whole entry): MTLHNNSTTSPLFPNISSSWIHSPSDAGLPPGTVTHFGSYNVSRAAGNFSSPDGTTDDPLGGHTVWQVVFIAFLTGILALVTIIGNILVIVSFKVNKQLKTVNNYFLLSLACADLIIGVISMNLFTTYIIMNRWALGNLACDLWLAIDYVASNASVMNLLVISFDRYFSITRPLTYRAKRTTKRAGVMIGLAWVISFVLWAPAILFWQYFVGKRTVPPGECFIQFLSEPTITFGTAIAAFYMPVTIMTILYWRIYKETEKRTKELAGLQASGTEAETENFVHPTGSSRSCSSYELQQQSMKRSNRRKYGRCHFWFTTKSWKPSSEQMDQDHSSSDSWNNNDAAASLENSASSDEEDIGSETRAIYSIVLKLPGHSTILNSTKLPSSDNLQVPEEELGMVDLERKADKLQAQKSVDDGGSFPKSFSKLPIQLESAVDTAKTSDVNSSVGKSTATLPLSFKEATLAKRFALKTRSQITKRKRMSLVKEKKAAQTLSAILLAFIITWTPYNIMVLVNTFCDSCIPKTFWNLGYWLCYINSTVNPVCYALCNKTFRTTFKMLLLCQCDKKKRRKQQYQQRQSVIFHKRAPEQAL
T8 sequence (P08912 whole entry): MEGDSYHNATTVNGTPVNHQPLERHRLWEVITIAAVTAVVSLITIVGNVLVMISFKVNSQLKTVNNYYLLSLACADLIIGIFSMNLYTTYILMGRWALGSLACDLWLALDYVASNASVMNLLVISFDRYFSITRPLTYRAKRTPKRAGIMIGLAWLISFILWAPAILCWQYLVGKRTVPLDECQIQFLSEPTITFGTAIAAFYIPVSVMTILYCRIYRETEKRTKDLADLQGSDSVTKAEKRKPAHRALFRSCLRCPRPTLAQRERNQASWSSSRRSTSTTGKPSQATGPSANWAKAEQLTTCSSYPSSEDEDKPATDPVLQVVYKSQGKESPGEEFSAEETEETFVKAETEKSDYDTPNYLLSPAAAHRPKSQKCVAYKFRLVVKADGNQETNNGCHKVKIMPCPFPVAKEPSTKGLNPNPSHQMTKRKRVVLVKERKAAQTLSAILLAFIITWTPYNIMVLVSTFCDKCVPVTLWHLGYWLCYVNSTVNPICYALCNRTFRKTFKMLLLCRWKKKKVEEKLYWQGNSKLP
T5 sequence (P08912 whole entry): as above
T2 sequence (P11229 whole entry Y106C/A196G): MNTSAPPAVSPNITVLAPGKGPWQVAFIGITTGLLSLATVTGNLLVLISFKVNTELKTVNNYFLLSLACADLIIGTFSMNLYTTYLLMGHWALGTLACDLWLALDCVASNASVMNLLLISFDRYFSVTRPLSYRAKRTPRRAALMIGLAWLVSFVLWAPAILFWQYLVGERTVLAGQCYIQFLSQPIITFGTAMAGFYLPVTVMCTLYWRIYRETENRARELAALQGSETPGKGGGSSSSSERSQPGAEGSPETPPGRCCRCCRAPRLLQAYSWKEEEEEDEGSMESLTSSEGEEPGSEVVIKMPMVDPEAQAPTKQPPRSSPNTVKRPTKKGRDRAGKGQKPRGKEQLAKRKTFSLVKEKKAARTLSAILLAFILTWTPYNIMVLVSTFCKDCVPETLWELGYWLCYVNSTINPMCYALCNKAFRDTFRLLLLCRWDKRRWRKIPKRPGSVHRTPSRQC
T3 sequence (P11229 whole entry Y106C/A196G): as above
T4 sequence (P08172 whole entry): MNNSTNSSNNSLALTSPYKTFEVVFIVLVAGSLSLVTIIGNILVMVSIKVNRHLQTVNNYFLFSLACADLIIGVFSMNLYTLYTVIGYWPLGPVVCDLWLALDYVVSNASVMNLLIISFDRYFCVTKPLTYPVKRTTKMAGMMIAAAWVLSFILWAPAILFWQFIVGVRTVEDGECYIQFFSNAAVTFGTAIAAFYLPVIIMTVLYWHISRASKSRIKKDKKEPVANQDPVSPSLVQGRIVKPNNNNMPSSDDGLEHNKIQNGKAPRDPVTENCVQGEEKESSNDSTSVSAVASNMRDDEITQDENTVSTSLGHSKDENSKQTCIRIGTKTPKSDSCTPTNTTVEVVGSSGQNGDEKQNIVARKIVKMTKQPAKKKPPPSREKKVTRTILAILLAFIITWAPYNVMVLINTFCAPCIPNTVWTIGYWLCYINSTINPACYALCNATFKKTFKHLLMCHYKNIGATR
T7 sequence (P08173 whole entry): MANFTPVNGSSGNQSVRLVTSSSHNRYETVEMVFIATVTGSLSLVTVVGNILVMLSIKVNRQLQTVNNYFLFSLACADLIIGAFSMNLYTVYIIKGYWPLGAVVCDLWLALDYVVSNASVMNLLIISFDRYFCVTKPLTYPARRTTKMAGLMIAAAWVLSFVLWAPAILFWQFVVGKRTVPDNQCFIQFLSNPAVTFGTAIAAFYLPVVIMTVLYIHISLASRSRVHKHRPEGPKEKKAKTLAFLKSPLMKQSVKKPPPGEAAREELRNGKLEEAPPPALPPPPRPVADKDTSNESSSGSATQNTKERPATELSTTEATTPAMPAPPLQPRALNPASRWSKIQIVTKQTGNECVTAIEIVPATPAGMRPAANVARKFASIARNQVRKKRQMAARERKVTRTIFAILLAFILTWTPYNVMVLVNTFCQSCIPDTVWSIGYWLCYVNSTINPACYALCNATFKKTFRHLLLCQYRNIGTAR

Compound: Cc1cc(F)c2[nH]c(=O)n(C3CCN(C4CCOCC4)CC3)c2c1 [GSK1034702, 7-fluoro-5-methyl-3-[1-(oxan-4-yl)piperidin-4-yl]-1H-benzimidazol-2-one]
- effect on scopolamine-induced amnesia (rodents): reversed scopolamine-induced amnesia
- modulation by BQCA of the displacement of [^3H]-NMS (human M1 mAChR [1]): not modulated
- phosphorylation at serine 228 (M1 DREADD): unchanged
- potency and efficacy at the M1 DREADD compared with the wild-type receptor (humanized M1 DREADD): comparable potency and efficacy
- Ki (human mAChR M2): 3.98 µM
- effect on the [^3H]-NMS dissociation rate (human M1 mAChR [2]): no effect
- functional activity in ERK1/2 phosphorylation (M5 mAChR): partial agonist activity
- affinity for the M3 mAChR (human mAChR M3): much lower affinity
- functional activity in ERK1/2 phosphorylation (M4 mAChR): partial agonist activity
- Emax (human M1 mAChR [3]; % of the maximal response elicited by ACh, read-out: IP1 accumulation, maximal response relative to ACh): ~90%
- IP1 Emax (human M1 mAChR [3]; CHO Flp-In human M1 cells): 90.1 ± 2.9
- EC50 (human M1 mAChR [3]; CHO Flp-In human M1 cells, read-out: IP1 pEC50 (converted)): 0.0794 µM
- IP1 Accumulation ΔLog10(τ/KA) (human M1 mAChR [3]; normalized to reference ligand ACh): 0.3 ± 0.2
- IP1 Accumulation Log10(τ/KA) (human M1 mAChR [3]; transduction coefficient, wild-type M1 mAChR): 7.4 ± 0.2
- Ki (human mAChR M5): 6.31 µM
